Data set [1] has as its target T1, PPARα (Homo sapiens (Human), UniProt Q07869). The experiment in a line: Activation of PPARα in genetically engineered CHO-K1 cells (PathHunter). It is filed as cell-based. The settings on record: PathHunter CHO-K1 PPARα cell line, agonist format, 6 hours. From the text:
(§1) Test Example 3: Experiment of Compounds on Activation of PPAR α, δ and γ in Genetically Engineered CHO-K1 Cells
(§2) Cell: PathHunter® CHO-K1 PPARα Protein Interaction Cell Line, PathHunter® CHO-K1 PPARδ Protein Interaction Cell Line and PathHunter® CHO-K1 PPARγ Protein Interaction Cell Line, provided by DiscoverX®.
(§3) Assay kit: PathHunter® Detection Kit, provided by DiscoverX®.
(§4) 1) Cell Handling: PathHunter NHR (nuclear hormone receptor, PPARα, δ, γ) cell lines were expanded from freezer stocks according to standard procedures. Cells were seeded in a total volume of 20 μL into white walled, 384-well microplates and incubated at 37° C., 5% CO2 for the appropriate time prior to testing. […]
(§5) 3) Signal detection: Assay signal was generated through a single addition of 12.5 or 15 μL (50% v/v) of PathHunter Detection reagent cocktail, followed by one-hour-incubation at room temperature. Microplates were read following signal generation with a PerkinElmer Envision™ instrument for chemiluminescent signal detection.
(§6) 4) Data analysis: Both compound activity and EC50S were analyzed using CBIS data analysis suite (ChemInnovation, CA). For agonist mode assays, percentage activity was calculated using the following formula: % Activity=100%×(mean RLU of test sample−mean RLU of vehicle control)/(mean MAX control ligand−mean RLU of vehicle control).
Target sequence in this assay (Q07869 whole entry): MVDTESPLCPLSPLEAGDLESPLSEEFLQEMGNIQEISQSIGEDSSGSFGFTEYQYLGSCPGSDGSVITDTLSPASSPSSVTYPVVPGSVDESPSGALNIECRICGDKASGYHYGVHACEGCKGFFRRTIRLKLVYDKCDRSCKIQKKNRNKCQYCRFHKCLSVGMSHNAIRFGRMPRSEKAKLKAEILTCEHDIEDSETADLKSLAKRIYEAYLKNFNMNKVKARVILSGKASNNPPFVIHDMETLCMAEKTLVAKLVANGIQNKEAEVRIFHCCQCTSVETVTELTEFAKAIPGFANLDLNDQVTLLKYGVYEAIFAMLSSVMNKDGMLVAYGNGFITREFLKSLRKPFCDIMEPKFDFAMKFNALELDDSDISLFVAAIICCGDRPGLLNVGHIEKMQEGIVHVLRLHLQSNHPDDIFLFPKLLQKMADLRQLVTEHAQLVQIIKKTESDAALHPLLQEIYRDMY

Data set [2] has as its target T2, PPARδ (Homo sapiens (Human), UniProt Q03181). The experiment in a line: Activation of PPARδ in genetically engineered CHO-K1 cells (PathHunter). It is filed as cell-based. The settings on record: PathHunter CHO-K1 PPARδ cell line, agonist format, 6 hours.
Source text: as §1, §2, §3, §4, §5, §6
Target sequence in this assay (Q03181 whole entry): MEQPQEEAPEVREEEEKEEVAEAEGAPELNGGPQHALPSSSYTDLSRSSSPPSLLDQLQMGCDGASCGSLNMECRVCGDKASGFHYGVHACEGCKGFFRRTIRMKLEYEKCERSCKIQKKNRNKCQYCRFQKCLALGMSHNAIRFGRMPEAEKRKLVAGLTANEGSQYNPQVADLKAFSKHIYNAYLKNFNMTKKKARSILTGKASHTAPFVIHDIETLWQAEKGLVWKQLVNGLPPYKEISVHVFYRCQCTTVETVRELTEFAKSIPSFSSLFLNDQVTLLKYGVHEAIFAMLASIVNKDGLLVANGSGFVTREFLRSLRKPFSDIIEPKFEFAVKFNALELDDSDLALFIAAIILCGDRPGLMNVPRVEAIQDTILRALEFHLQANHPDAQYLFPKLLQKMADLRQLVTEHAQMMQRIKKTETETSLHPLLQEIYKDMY

For data set [3], the target named is PPARγ (Homo sapiens (Human), UniProt P37231). Briefly: Activation of PPARγ in genetically engineered CHO-K1 cells (PathHunter). Format: cell-based. The settings on record: PathHunter CHO-K1 PPARγ cell line, agonist format, 6 hours.
Source text: as §1, §2, §3, §4, §5, §6

Data set [4] concerns the target T1, PPARα. Briefly: Activation of transient transfected PPAR α in HEK293 cells (GAL4-hPPAR α luciferase assay). It is filed as cell-based. The settings on record: HEK293 transfected with GAL4-hPPAR α, 24 h incubation. As to the method:
Test example 1: Experiment of the compounds on activation of transient transfected PPAR α in HEK293 cells
Plasmid: pcDNA3.1(+)-GAL4-hPPAR α, customized by Nanjing Kebai Biotechnology Co., Ltd.
(§7) Liposome: PGL4.35, customized by Nanjing Kebai Biotechnology Co., Ltd.
(§8) Cell: human embryonic kidney cells HEK293, purchased from ATCC.
(§9) Transfection reagent: Lipofectamine Reagent 3000 purchased from Invitrogen.
(§10) Assay kit: Bright Glo™ Luciferase Assay System purchased from Promega.
(§11) HEK293 cells were incubated in DMEM medium containing 10% of fetal bovine serum at 37° C. in the presence of 5% of CO2. 3×10^5/ml cells were plated in each well of the 6-well plate. When the cell convergence degree reached 50%-80%, 5 μg of liposome PGL4.35 and 5 μg of expression plasmid pcDNA3.1(+)-GAL4-hPPAR α were added to transfect the cells for 24 h and then the cells were collected. The transfected cells were plated in the 96-well plate and the compounds of the application in different concentrations were added, incubated for 24 h, and Bright Glo™ Luciferase Assay System reagent was added for luciferase assay.
Target sequence in this assay (Q07869 whole entry, looked up): as the sequence (Q07869 whole entry) above

Data set [5] deals with T2, PPARδ. The experiment in a line: Activation of transient transfected PPAR δ in HEK293 cells (GAL4-hPPAR δ luciferase assay). Format: cell-based. The settings on record: HEK293 transfected with GAL4-hPPAR δ, 24 h incubation. As to the method:
Test Example 2: Experiment of the Compounds on Activation of Transient Transfected PPAR δ in HEK293 Cells
Plasmid: pcDNA3.1(+)-GAL4-hPPAR δ, customized by Nanjing Kebai Biotechnology Co., Ltd.
as §7, §8, §9, §10
as §11, with “δ” for “α”, “Then, the” for “The”, “reagent” for “reagent was added”, “assay was added.” for “assay.”
Target sequence in this assay (Q03181 whole entry, looked up): as the sequence (Q03181 whole entry) above

Data set [6] in a line: Cytotoxicity test on HepG2 cells (CellTiter Glo). Format: cell-based. The settings on record: human, incubated for 3 days. On the procedure: (§12) Test Example 4: Cytotoxicity Test of Compound on HepG2 & Hek293 Cells
(§13) Cells: human hepatocyte HepG2, purchased from ATCC; Human embryonic kidney cells HEK293: purchased from ATCC;
(§14) Assay reagent: CellTiter Glo® Luminescent Cell Viability Assay, purchased from Promega.
(§15) HepG2 and HEK293 cells were incubated in DMEM/F12 medium containing 10% of fetal bovine serum respectively. A proper amount of cells were plated into a 96-well plate, the plate was placed in an incubator overnight, and the culture medium was removed, and replaced with a complete culture medium containing the compound of the application, and incubated for 3 days. On day 4, an assay reagent CellTiter Glo was added to each well, and the relative luminous unit (RLU) of each well was determined by chemiluminescence. CC50 values of the compound of the application to HepG2 and HEK293 cells were calculated by GraphPad software, and the results were shown in Table 3.
A general note: In ATP-based viability assays light output follows the ATP content of the culture.

Data set [7] can be described thus: Cytotoxicity test on HEK293 cells (CellTiter Glo). Format: cell-based. The settings on record: human, incubated for 3 days. On the procedure: as §12, §13, §14, §15
Data set [8] concerns the target hERG potassium ion channel (Homo sapiens (Human), UniProt Q12809). Briefly: Predictor hERG fluorescence polarization. It is filed as binding. As to the method: Test Example 5: In Vitro Safety Test
The effect of the compound on hERG potassium ion channel was tested by Predictor™ hERG fluorescence polarization.

Data set [9] concerns MCD model of non-alcoholic steatohepatitis. Briefly: In vivo efficacy study in the MCD model of non-alcoholic steatohepatitis. Details: species or system C57 Mice. The note with it: MCD diet mice. As to the method:
Test Example 6: In Vivo Efficacy Study of Compound in the MCD Model of Non-Alcoholic Steatohepatitis In this example, comparative test between compound GFT505 from WO2018133705A1 and compounds of the invention was conducted, so as to show the advantages of compounds of the invention. C57 Mice at 8-10 weeks of age (purchased from Vital River Laboratories) were body-weight matched and randomly divided into groups of normal, model, control and test. Mice in normal group were fed with standard chow for 9 weeks. Mice in model group, control group and test group were fed with MCD diet (Methionine-Choline Deficient Diet, Research Diets) for 9 weeks to induce NASH Model. During weeks 5-9 of the 9-week course of MCD diet, the control group and the test group were treated with GFT505 and TM4 of the invention, respectively, and the normal group and model group were treated with 0.5% MC. The dosage regimen was specified in table 5. [table] Animals were dissected after administration on day 35, livers were collected for H&E staining (hematoxylin-eosin staining) and sirius red staining. And then NAFLD activity score, including liver steatosis score, inflammation score and ballooning score, and liver fibrosis score were conducted.

Where [10] appears, read: 1 mg/kg intragastric once every day for 35 days.
[11] abbreviates: 1 mg/kg, 35 days, result in words.

Marks after values point to notes of the source that are not given here. Some results are limits rather than exact numbers.

The EC50 is the concentration at which the effect is half-maximal. A higher EC50 goes with a need for much substance. What is called CC50 is the concentration that lowers cell viability or growth by half. Low readings indicate harm at low concentration, high ones better tolerance by the cells. Usually IC50 stands for the concentration at which inhibition is half-maximal.

Chain of PPARγ (P37231 whole entry): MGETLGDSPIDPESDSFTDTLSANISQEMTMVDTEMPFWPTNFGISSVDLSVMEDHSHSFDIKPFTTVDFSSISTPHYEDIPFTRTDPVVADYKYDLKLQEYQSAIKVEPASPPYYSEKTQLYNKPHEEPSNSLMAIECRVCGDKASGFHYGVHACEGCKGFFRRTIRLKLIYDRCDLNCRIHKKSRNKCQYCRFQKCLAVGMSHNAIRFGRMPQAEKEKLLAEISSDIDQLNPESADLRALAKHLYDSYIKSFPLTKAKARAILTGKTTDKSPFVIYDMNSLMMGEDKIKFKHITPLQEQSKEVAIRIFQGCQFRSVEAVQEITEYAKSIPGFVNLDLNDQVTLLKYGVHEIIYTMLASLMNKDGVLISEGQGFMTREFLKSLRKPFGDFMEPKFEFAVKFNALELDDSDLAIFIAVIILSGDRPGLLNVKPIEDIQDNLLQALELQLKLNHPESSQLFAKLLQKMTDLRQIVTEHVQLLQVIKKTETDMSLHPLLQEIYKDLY
Chain of hERG potassium ion channel (Q12809 whole entry): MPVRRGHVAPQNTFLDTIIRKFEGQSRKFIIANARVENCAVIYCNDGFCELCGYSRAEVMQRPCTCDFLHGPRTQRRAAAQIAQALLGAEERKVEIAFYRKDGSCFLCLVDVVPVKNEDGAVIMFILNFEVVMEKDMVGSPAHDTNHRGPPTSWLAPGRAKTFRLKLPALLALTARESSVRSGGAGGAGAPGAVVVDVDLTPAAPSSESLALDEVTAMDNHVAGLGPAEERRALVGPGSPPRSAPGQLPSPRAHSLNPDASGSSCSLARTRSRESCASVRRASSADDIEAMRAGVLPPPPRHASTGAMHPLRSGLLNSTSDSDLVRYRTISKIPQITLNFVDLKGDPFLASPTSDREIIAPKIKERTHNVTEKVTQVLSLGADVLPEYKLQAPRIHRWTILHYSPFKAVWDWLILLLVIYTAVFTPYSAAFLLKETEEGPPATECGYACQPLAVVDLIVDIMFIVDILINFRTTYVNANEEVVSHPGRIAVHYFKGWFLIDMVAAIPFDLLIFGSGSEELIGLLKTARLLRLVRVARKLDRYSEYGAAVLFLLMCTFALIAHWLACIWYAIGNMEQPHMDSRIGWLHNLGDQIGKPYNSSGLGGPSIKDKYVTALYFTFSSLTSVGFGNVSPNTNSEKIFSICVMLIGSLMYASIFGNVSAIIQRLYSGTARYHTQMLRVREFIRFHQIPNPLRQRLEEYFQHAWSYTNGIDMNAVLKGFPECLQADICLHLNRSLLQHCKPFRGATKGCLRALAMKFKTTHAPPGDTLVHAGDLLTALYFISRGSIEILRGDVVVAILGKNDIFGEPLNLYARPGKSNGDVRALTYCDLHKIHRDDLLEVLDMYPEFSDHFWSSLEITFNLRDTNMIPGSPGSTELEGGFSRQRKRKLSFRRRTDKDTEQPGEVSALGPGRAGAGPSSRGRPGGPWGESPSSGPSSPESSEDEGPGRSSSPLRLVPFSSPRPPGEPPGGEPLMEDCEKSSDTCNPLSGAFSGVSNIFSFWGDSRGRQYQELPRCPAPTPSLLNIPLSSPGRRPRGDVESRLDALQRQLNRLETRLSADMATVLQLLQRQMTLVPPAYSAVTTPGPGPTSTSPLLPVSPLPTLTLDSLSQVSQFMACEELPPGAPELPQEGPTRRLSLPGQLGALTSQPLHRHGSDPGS

As to `COc1nc2ccccc2cc1C(=O)CCc1cc(C)c(OC(C)(C)C(=O)O)c(C)c1` [TM42, 2-(4-(3-(2-methoxyquinolin-3-yl)-3-oxopropyl)-2,6-dimethylphenoxy)-2-methylpropanoic acid], the EC50 in [1] worked out at 63 nM; in data set [2], 496 nM; in data set [3], 1950 nM.

For `COc1nc2ccccc2cc1C(=O)/C=C/c1cc(C)c(OC(C)(C)C(=O)O)c(C)c1` [Example 5, (E)-2-(4-(3-(2-methoxyquinolin-3-yl)-3-oxo-1-propen-1-yl)-2,6-dimethylphenoxy)-2-met hylpropionic acid], the EC50 in data set [4] amounted to 28.3 nM; in [5], 556 nM; in [1] it was 23 nM; in data set [2], 797 nM; in data set [3], 174 nM. Further, the cytotoxic concentration (CC50) at 3 days came to 13000 nM in data set [6] and 7130 nM in data set [7]. For the same compound, the IC50 in data set [8] was more than 10000 nM. Further, the “Liver fibrosis score (Mean ± SD)” value in [9] (setting [10]) was 0.88 ± 0.35^b. In addition, the “NAFLD activity score (Mean ± SD)” value in [9] (setting [10]) is recorded as 3.00 ± 0.93^b. For the same compound, in [9] (setting [11]), the “Reduction of NAFLD activity score compared with model group” value is given as “significant reduction”. Further, in data set [9] (setting [11]), the “Reduction of liver fibrosis score compared with model group” value is given as “significant reduction”.

Values taken from US11261170B2, “Aromatic compound, pharmaceutical composition and use thereof” (Sichuan Kelun-Biotech Biopharmaceutical Co., Ltd., priority 2017, dated 2022).
